Laboratory results as given in ChEMBL document CHEMBL6087420, “Synthesis and pharmacodynamic evaluation of 2-aminoindole derivatives against influenza A virus in vitro/vivo” (Eur J Med Chem, 2025).
Calls of active or inactive are those of the source. The rule behind the calls is not given here.

Columns and labels:
[1] = Selectivity index, ratio of CC50 for dog MDCK cells to EC50 for antiviral activity against Influenza A virus H1N1 (A/Weiss/43) infected in MDCK cells; assay type: toxicity, cell-based; conditions: read-out: Ratio CC50/EC50
[2] = Selectivity index, ratio of CC50 for dog MDCK cells to EC50 for antiviral activity against Influenza A virus […] H3N2 (A/California/2014) infected in MDCK cells; assay type: toxicity, cell-based; conditions: read-out: Selectivity Index
Influenza A virus [3] = experiment: Anti-influenza activity against influenza A virus H3N2 (A/California/2014) infected in dog MDCK cells incubated for 72 hrs by MTT assay; assay type: functional, organism-based
[4] = Selectivity index, ratio of CC50 for dog MDCK cells to EC50 for antiviral activity against Influenza A virus H1NI (A/Virginia/ATCC2/2009) infected in MDCK cells; assay type: toxicity, cell-based; conditions: read-out: Selectivity Index
[5] = Cytotoxicity against human A549 cells assessed as toxicity after 72 hrs of incubation by MTT assay; assay type: cell-based
Influenza A virus [6] = experiment: Antiviral activity against influenza A virus H1NI (A/Weiss/43) infected in MDCK cells assessed as reduction in IAV-NP mRNA by qRT-PCR assay; assay type: functional, organism-based
Influenza A virus [7] = experiment: Antiviral activity against influenza A virus H1NI (A/Weiss/43) virus infected in dog MDCK cells assessed as viral inhibition treated after 4 hrs of viral infection measured at 72 hrs incubation by MTT assay; assay type: functional
Influenza A virus [8] = experiment: Antiviral activity against influenza A virus infected in A549 cells assessed as decrease in IAV-NP mRNA level measured after 1 to 3 days of viral infection; assay type: functional, organism-based; conditions: time 1-3 day
Influenza A virus [9] = experiment: Inhibition of influenza A virus infection induced apoptosis in MDCK cells infected with influenza virus assessed as viable cells at 25 uM incubated for 36 hrs by AnnexinV-FITC/PI staining based flow cytometry (reference value: 66.9%); assay type: functional
Influenza A virus [10] = experiment: Inhibition of influenza A virus infection induced apoptosis in MDCK cells infected with influenza virus assessed as late apoptotic cells at 25 uM incubated for 36 hrs by AnnexinV-FITC/PI staining based flow cytometry (reference value: 13.2%); assay type: functional; parameters: scale not given: the % may be the effect or the level left
Influenza A virus [11] = experiment: Inhibition of influenza A virus infection induced apoptosis in MDCK cells infected with influenza virus assessed as viable cells at 100 uM incubated for 36 hrs by AnnexinV-FITC/PI staining based flow cytometry (reference value: 66.9%); assay type: functional
Influenza A virus [12] = experiment: Inhibition of influenza A virus infection induced apoptosis in MDCK cells infected with influenza virus assessed as necrotic cells at 100 uM incubated for 36 hrs by AnnexinV-FITC/PI staining based flow cytometry (reference value: 1.79%); assay type: functional; parameters: scale not given: the % may be the effect or the level left
Influenza A virus [13] = experiment: Inhibition of influenza A virus infection induced apoptosis in MDCK cells assessed as viable cells at 100 uM incubated for 36 hrs by AnnexinV-FITC/PI staining based flow cytometry (reference value: 97.6%); assay type: functional
Influenza A virus [14] = experiment: Inhibition of influenza A virus infection induced apoptosis in MDCK cells assessed as early apoptotic cells at 100 uM incubated for 36 hrs by AnnexinV-FITC/PI staining based flow cytometry (reference value: 0.96%); assay type: functional; parameters: scale not given: the % may be the effect or the level left
Influenza A virus [15] = experiment: Inhibition of influenza A virus infection induced apoptosis in MDCK cells assessed as necrotic cells at 100 uM incubated for 36 hrs by AnnexinV-FITC/PI staining based flow cytometry (reference value: 0.74%); assay type: functional; parameters: scale not given: the % may be the effect or the level left
Influenza A virus [16] = experiment: Antiviral activity against influenza A virus infected in human A549 cells assessed as inhibition of IL-13 expression by qRT-PCR analysis; assay type: functional, organism-based
Influenza A virus [17] = experiment: Antiviral activity against influenza A virus infected in human A549 cells assessed as inhibition of RIG-1 protein expression at 25 to 100 uM by Western blot analysis; assay type: functional, organism-based; conditions: dose 25-100 µM
Influenza A virus [18] = experiment: Antiviral activity against influenza A virus infected in human A549 cells assessed as inhibition of NF-kappaB protein expression at 25 to 100 uM by Western blot analysis; assay type: functional, organism-based; conditions: dose 25-100 µM
Influenza A virus [19] = experiment: Antiviral activity against influenza A virus H1NI (A/Weiss/43) infected in compound pretreated MDCK cells assessed as reduction in viral absorption; assay type: functional, organism-based
Influenza A virus [20] = experiment: Inhibition of Hemagglutinin in Influenza A virus
Influenza A virus [21] = experiment: Inhibition of neuraminidase in Influenza A virus
MDCK = experiment: Inhibition of influenza virus infection induced mitochondrial membrane potential loss in MDCK cells infected with influenza virus assessed as decrease in green fluorescence at 25 to 100 uM by JC-1 probe based confocal microscopy; assay type: functional, cell-based; conditions: Influenza A virus, dose 25-100 µM
Influenza A virus [22] = experiment: Inhibition of influenza A virus infection induced apoptosis in MDCK cells infected with influenza virus assessed as decrease in cleaved caspase 9 incubated for 36 hrs by Western blot analysis; assay type: functional, organism-based
Influenza A virus [23] = experiment: Inhibition of influenza A virus infection induced apoptosis in MDCK cells infected with influenza virus assessed as decrease in Bax incubated for 36 hrs by Western blot analysis; assay type: functional, organism-based
Influenza A virus [24] = experiment: Inhibition of influenza A virus infection induced apoptosis in MDCK cells infected with influenza virus assessed as decrease in cleaved caspase 3 at 25 to 100 uM incubated for 36 hrs by Western blot analysis; assay type: functional, organism-based; conditions: dose 25-100 µM
Influenza A virus [25] = experiment: Inhibition of influenza A virus infection induced apoptosis in MDCK cells infected with influenza virus assessed as upregulation of Bcl2 incubated for 36 hrs by Western blot analysis; assay type: functional, organism-based
Influenza A virus [26] = experiment: In vivo antiviral activity against influenza A virus infected in BALB/c mouse assessed as decrease in symptoms at 25 to 100 mg/kg; assay type: functional, organism-based; conditions: dose 25-100 mg/kg
Influenza A virus [27] = experiment: In vivo antiviral activity against influenza A virus infected in BALB/c mouse assessed as reduction in lung lesions at 25 to 100 mg/kg; assay type: functional, organism-based; conditions: dose 25-100 mg/kg
Influenza A virus [28] = experiment: In vivo antiviral activity against influenza A virus infected in BALB/c mouse assessed as reduction in IAV-NP mRNA level in lung at 25 to 100 mg/kg measured after 6 dpi; assay type: functional, organism-based; conditions: dose 25-100 mg/kg
Influenza A virus [29] = experiment: In vivo antiviral activity against influenza A virus infected in BALB/c mouse assessed as reduction in IAV-M2 mRNA level in lung at 25 to 100 mg/kg measured after 6 dpi; assay type: functional, organism-based; conditions: dose 25-100 mg/kg
Influenza A virus [30] = experiment: In vivo antiviral activity against influenza A virus infected in BALB/c mouse assessed as reduction in TNF-alpha mRNA level in lung at 25 to 100 mg/kg measured after 6 dpi; assay type: functional, organism-based; conditions: dose 25-100 mg/kg
Influenza A virus [31] = experiment: In vivo antiviral activity against influenza A virus infected in BALB/c mouse assessed as reduction in iNOS mRNA level in lung at 25 to 100 mg/kg measured after 6 dpi; assay type: functional, organism-based; conditions: dose 25-100 mg/kg
Influenza A virus [32] = experiment: In vivo antiviral activity against influenza A virus infected in BALB/c mouse assessed as reduction in ASC mRNA level in lung at 25 to 100 mg/kg measured after 6 dpi; assay type: functional, organism-based; conditions: dose 25-100 mg/kg
[33] = Toxicity in healthy BALB/c mouse assessed as pathological change in heart at 25 to 100 mg/kg administered through gavage for 6 days; assay type: organism-based; conditions: in vivo, po, 144 h, dose 25-100 mg/kg, time 6 day
[34] = Toxicity in healthy BALB/c mouse assessed as pathological change in kidney at 25 to 100 mg/kg administered through gavage for 6 days; assay type: organism-based; conditions: in vivo, po, 144 h, dose 25-100 mg/kg, time 6 day
[35] = Toxicity in healthy BALB/c mouse assessed as pathological change in colon at 25 to 100 mg/kg administered through gavage for 6 days; assay type: organism-based; conditions: in vivo, po, 144 h, dose 25-100 mg/kg, time 6 day

For `COc1ccc2c(c1)c(-c1ccccc1)c(NS(C)(=O)=O)n2S(=O)(=O)c1ccc(C)cc1`, the selectivity ratio [1] was 80, the selectivity ratio [2] was 36.5 and the EC50 (Influenza A virus [3]) was 18.3 µM. For the same compound, the selectivity ratio [4] was 51.9, the CC50 at 72 h [5] was 632 µM and the Activity (Influenza A virus [6]) was “Active”. For the same compound, the “inhibition (INH)” value (Influenza A virus [7]) was 85.3%, the Activity (Influenza A virus [8]) was “Active” and the Activity (Influenza A virus [9]) was 71.9%. The Activity (Influenza A virus [10]) was 9.29%, the Activity (Influenza A virus [11]) was 92.8% and the Activity (Influenza A virus [12]) was 1.74%. It also gave an Activity (Influenza A virus [13]) of 96.7%, an Activity (Influenza A virus [14]) of 0.89% and an Activity (Influenza A virus [15]) of 1.78%. For the same compound, the Activity (Influenza A virus [16]) was “Active”, the Activity (Influenza A virus [17]) was “Active” and the Activity (Influenza A virus [18]) was “Active”. For the same compound, the Activity (Influenza A virus [19]) was “inactive”, the inhibition (Influenza A virus [20]) was “inactive” and the inhibition (Influenza A virus [21]) was “inactive”. For the same compound, the inhibition (MDCK) was “Active”, the Activity (Influenza A virus [22]) was “Dose-dependent-effect” and the Activity (Influenza A virus [23]) was “Active”. The Activity (Influenza A virus [24]) was “Active”, the Activity (Influenza A virus [25]) was “Active” and the Activity (Influenza A virus [26]) was “Active; Alleviate Following Symptoms - Symptoms Of Severe Malaise, Respiratory Distress, Asthma, Messy Coat, Hunched Back, And Loss Of Appetite To Certain Extent”. For the same compound, the Activity (Influenza A virus [27]) was “Active; Compound Alleviate Red Liver-Like Degeneration Stage, With Edema And Expansion, And Dark Red Lesions And Lung Consolidation - Only Mild Edema Observed”, the Activity (Influenza A virus [28]) was “Active” and the Activity (Influenza A virus [29]) was “Active”. For the same compound, the Activity (Influenza A virus [30]) was “Active”, the Activity (Influenza A virus [31]) was “Active” and the Activity (Influenza A virus [32]) was “Active”. For the same compound, the Activity [33] was “Non-toxic”, the Activity [34] was “Non-toxic” and the Activity [35] was “Non-toxic”.
